# Assay results reported in patent publication US20220088127A1, “TARGETING THE BAG FAMILY FOR THE TREATMENT OF NEURODEGENERATIVE DISEASE” (Temple University - of the Commonwealth System of Higher …, priority 2019, published 2022).
# Peptide text beside a SMILES is read from it. * marks the point of attachment. Cbz = O=C(OCc1ccccc1)*
# System: BAG3
# Assay: BAG3 protein level by Western blot
# Format: cell-based, rat
# Method: Dissociated cell cultures of hippocampal and cortical neurons were prepared using dissected E18 prenatal rat embryonic brains. After digestion in 0.25% trypsin solution, neurons were plated on tissue culture plates and slides pre-coated with poly-D-lysine (Sigma, St. Louis, Mo.) and laminin (Invitrogen 23017, USA). Cells were maintained 14 days prior to treatments. Neurons were transduced with Ad-Null (Vector Biolabs, Malvern, Pa.), Ad-Tat (made in-house), Ad-siBAG3 (Vector Biolabs, Malvern, Pa.) and Ad-BAG3 (Vector Biolabs, Malvern, Pa.) with MOI 1 to 4 or recombinant Tat protein (50 ng/ml, full length, 101 amino acids, Immunodiagnostics, MA). Tat bioactivity was verified by the LTR-luciferase assay. MG132 (5 μM) and Bafilomycin A 1 (50 nM, Sigma) were applied for 4 h prior to lysis to block proteasome and lysosomal autophagy, respectively.
# Neuronal and mouse brain tissue lysates were prepared using RIPA lysis buffer (whole cell extract), Tris-Triton (soluble fraction) or 2% SDS in PBS (insoluble fraction), all containing protease inhibitor cocktail (Sigma-Aldrich, St. Louis, Mo.). Protein concentration was measured using Bio-Rad protein assay reagent (Bio-Rad, Hercules, Calif.). SDS-polyacrylamide gels, 10-12%, and nitrocellulose membranes (LI-COR, Inc., Lincoln, Nebr.) were used for electrophoretic protein separation and transfer, respectively. […]
Compound,BAG3 levels in Tat-expressing neurons under lysosomal inhibition (Bafilomycin A1),BAG3 levels in Tat-expressing neurons under proteasome inhibition (MG132 for 4 h on day 3 post-transduction)
"CO/C1=C\C(C)=C\[C@@H](C)[C@@H](O)[C@@H](C)C/C(C)=C/C=C/[C@H](OC)[C@@H]([C@@H](C)[C@@H](O)[C@H](C)[C@@]2(O)C[C@@H](O)[C@H](C)[C@@H](C(C)C)O2)OC1=O [Baf A1, Bafilomycin A1]",no significant changes,–
CC(C)C[C@@H](C=O)NC(=O)[C@H](CC(C)C)NC(=O)[C@H](CC(C)C)NC(=O)OCc1ccccc1 [MG132] (Cbz-Leu-Leu-Leu-aldehyde),–,not altered
